Results from US20220315593A1, “EGFR INHIBITORS FOR THE TREATMENT OF CANCER” (Hoffmann-La Roche Inc., priority 2019, published 2022).
pIC50: −log10 of the molar value.

What was measured:
[1] = biological target: T1, EGFR TMLR (T790M/L858R), H1975 cell line (Homo sapiens, UniProt P00533, L858R/T790M); assay: HTRF Phospho EGFR TMLR Assay (Cellular); assay type: cell-based; conditions: H1975 cells, 16 hours compound incubation
T1 construct: H1975 cell line (CRL-5908; Lot BA70803) was obtained from American Type Culture Collection; host or cells: H1975
Procedure: HTRF Phospho EGFR TMLR Assay (Cellular)
H1975 cell line (CRL-5908; Lot BA70803) was obtained from American Type Culture Collection (Manassas, Va., USA). Cells were maintained at 37° C., 5% CO2 in complete Media RPMI 1640 without phenol red containing 0.3 mg/ml glutamine, 100 IU/ml penicillin, and […] streptomycin (Gibco, 15140-122) supplemented with 10% fetal bovine serum (FBS, Gibco, 10091-148). Compounds were diluted into starving medium RPMI 1640 Media (Gibco, 11835-030) without phenol red containing 0.3 mg/ml glutamine, 100 IU/ml penicillin, and […] streptomycin (Gibco).
Cells were cultured for 24 h in a 384-well plate (Greiner Bio-One, Nr. 784-080; 5000 cells/well) using 8 μl of complete medium/well. Then 4 μl/well of the 3× compound solution, containing a factor 3 dilution series of the compound or DMSO in starving medium, were added to the cells (final DMSO 0.33%). After 16 hours at 37° C., 5% CO2, 95% rel. humidity cells were lysed by adding to the compound mix 4 μl/well of the supplemented lysis buffer (Cis-bio, Phospho-EGFR HTRF kit, 64EG1PEH), followed by incubation for 30 min at room temperature with shaking (400 rpm). Then 4 μl of a mixture of anti-Phospho-EGFR Cryptate and of anti-Phospho-EGFR-d2 antibody solutions prepared in the detection buffer was added. The plates were then incubated for 4 h at room temperature before reading the fluorescence emission at 620 and 665 nm using an Envision reader (Perkin Elmer).

[2] = biological target: T2, EGFR TMLRCS (T790M/L858R/C797S), BaF3-TMLRCS cell line (Homo sapiens, UniProt P00533, C797S/L858R/T790M); assay: HTRF Phospho EGFR TMLRCS Assay (Cellular); assay type: cell-based; conditions: BaF3-TMLRCS cells, 4 hours compound incubation
T2 construct: host or cells: BaF3
Procedure: HTRF Phospho EGFR TMLRCS Assay (Cellular)
BaF3-TMLRCS cell line were obtained from Crownbio (San Diego, Calif., USA). Cells were maintained at 37° C., 5% CO2 in RPMI ATCC (Gibco 31870) +2mM Glutamine+0.5 μg/ml Puromycin supplemented with 10% fetal bovine serum (FBS) (Gibco).
Cells are transferred as above to Greiner Bio-One, Nr. 784-08 micro-titerplate at 20000 cells/well in 12.5 μl of growth medium/well after the plates had been pre-filled with 12.5 nl of DMSO solutions of the to be tested compounds (in dose response) or DMSO only. After spinning the plates at 300×g for 30 seconds the cells were incubated for 4 hours at 37 C, 5% CO2, 95% humidity. The cells were lysed by adding to the compound mix 4 μl/well of the supplemented lysis buffer (Cis-bio, Phospho-EGFR HTRF kit, 64EG1PEH), followed by incubation for 30 min at room temperature with shaking (400 rpm). The plates were then frozen and stored overnight at −80 C. On the next day and after thawing the plates, 4 μl of a mixture of anti-Phospho-EGFR Cryptate and of anti-Phospho-EGFR-d2 antibody solutions prepared in the supplied detection buffer was added to each well. The lidded plates were then incubated for 4 h at room temperature before reading the fluorescence emission at 616 and 665 nm using an Envision reader (Perkin Elmer). Data was analyzed in similar fashion as above using the normalized ratio of the 665 to 616 signals multiplied by 10000.

T2 sequence (P00533 25-1210 T790M/C797S/L858R): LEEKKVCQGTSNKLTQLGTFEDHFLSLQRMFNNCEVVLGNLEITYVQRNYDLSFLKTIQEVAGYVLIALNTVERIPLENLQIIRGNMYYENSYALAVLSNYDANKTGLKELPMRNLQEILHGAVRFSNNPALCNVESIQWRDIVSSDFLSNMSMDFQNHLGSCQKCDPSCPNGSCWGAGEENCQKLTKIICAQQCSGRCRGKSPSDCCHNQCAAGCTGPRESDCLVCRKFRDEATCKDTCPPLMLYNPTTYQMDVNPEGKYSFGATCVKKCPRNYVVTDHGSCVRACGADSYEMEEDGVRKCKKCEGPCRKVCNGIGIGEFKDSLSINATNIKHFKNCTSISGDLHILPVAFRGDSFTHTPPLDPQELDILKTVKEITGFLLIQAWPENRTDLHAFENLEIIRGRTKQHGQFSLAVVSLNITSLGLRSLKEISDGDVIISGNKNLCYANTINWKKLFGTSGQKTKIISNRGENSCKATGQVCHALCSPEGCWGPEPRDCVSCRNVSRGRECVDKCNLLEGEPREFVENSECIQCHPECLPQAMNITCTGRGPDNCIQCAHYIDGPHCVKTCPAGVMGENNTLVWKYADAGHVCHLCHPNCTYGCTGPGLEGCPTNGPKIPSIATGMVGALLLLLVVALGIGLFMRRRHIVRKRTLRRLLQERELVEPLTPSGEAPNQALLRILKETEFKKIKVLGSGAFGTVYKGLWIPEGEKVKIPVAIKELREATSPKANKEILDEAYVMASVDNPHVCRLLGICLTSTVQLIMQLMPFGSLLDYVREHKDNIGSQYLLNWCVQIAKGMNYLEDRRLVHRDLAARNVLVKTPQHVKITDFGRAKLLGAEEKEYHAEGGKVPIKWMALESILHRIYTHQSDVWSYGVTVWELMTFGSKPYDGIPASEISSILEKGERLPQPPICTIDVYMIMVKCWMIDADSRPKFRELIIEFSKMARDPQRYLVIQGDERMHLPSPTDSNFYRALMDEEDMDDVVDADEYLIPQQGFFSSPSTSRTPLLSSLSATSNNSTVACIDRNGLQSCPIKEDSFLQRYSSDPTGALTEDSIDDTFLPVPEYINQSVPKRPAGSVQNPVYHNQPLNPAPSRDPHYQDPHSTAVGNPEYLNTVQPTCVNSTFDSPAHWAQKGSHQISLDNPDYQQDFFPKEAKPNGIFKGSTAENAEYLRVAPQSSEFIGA
T1 sequence (P00533 25-1210 T790M/L858R): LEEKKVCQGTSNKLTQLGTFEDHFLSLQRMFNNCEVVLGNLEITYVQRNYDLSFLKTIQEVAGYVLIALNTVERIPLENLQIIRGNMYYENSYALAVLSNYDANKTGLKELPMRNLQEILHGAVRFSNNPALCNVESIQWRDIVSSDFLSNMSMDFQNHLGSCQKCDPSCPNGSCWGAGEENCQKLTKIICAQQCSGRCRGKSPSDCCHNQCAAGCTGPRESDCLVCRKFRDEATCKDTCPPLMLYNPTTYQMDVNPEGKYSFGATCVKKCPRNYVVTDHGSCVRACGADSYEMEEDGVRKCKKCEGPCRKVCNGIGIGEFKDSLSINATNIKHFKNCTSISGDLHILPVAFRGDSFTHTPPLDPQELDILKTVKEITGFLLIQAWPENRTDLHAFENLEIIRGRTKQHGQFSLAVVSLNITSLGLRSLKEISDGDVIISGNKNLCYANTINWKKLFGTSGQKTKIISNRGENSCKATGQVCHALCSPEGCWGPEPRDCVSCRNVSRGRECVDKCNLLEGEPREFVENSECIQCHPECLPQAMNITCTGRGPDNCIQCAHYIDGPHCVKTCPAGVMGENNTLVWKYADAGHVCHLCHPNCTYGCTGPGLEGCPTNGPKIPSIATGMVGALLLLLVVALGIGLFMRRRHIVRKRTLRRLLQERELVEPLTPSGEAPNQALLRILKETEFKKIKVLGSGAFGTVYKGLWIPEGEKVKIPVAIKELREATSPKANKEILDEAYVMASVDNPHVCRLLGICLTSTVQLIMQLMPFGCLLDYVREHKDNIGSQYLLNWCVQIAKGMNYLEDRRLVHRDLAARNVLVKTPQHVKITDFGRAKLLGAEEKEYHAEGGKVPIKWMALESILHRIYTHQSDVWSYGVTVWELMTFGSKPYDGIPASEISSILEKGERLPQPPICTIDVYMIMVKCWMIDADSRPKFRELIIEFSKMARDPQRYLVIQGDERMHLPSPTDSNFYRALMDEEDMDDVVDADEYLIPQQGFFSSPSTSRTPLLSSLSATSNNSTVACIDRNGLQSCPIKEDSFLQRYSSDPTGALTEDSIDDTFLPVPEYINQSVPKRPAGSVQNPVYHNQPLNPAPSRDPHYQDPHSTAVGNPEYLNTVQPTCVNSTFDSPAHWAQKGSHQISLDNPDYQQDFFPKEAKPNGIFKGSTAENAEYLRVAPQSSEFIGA

SMILES	pIC50 [1]	pIC50 [2]
COc1c(-c2ccc(N3CCOCC3)cc2)cc(Cl)c2cn(C(C(=O)Nc3nccs3)c3ncn4c3C[C@@H](F)C4)nc12 (mixture of isomers) [Example 19, 2-[4-Chloro-7-methoxy-6-(4-morpholin-4-ylphenyl)indazol-2-yl]-2-[rac-(6R)-6-fluoro-6,7-dihydro-5H-pyrrolo[1,2-c]imidazol-1-yl]-N-(1,3-thiazol-2-yl)acetamide]	9.00	8.15
O=C(Nc1nccs1)C(c1ncn2c1C[C@@H](F)C2)n1cc2c(F)cc(-c3ccc(N4CCOCC4)c(F)c3)cc2n1 (stereo partly drawn) [Example 5, 2-((R)-6-Fluoro-6,7-dihydro-5H-pyrrolo[1,2-c]imidazol-1-yl)-2-(4-fluoro-6-(3-fluoro-4-morpholinophenyl)-2H-indazol-2-yl)-N-(thiazol-2-yl)acetamide]	9.00	8.30
O=C(Nc1nccs1)C(c1ncn2c1CCC2)n1cc2c(Cl)cc(-c3ccc(N4CCOCC4)cc3)c(F)c2n1 (stereo not drawn) [Example 10, 2-(4-Chloro-7-fluoro-6-(4-morpholinophenyl)-2H-indazol-2-yl)-2-(6,7-dihydro-5H-pyrrolo[1,2-c]imidazol-1-yl)-N-(thiazol-2-yl)acetamide]	9.00	–
O=C(Nc1nccs1)C(c1ncn2c1CCC2)n1cc2c(F)cc(-c3ccc(N4CCOCC4)c(F)c3)cc2n1 (stereo not drawn) [Example 11, 2-(6,7-Dihydro-5H-pyrrolo[1,2-c]imidazol-1-yl)-2-(4-fluoro-6-(3-fluoro-4-morpholinophenyl)-2H-indazol-2-yl)-N-(thiazol-2-yl)acetamide]	9.00	–
O=C(Nc1nccs1)C(c1ncn2c1CCC2)n1cc2c(Cl)cc(-c3ccc(N4CCOCC4)cc3)c(Cl)c2n1 (stereo not drawn) [Example 14, 2-(4,7-Dichloro-6-(4-morpholinophenyl)-2H-indazol-2-yl)-2-(6,7-dihydro-5H-pyrrolo[1,2-c]imidazol-1-yl)-N-(thiazol-2-yl)acetamide]	8.52	7.66
O=C(Nc1nccs1)C(c1ncn2c1CCC2)n1cc2c(Cl)cc(-c3ccc(N4CCOCC4)c(F)c3)c(F)c2n1 (stereo not drawn) [Example 17, 2-(4-Chloro-7-fluoro-6-(3-fluoro-4-morpholinophenyl)-2H-indazol-2-yl)-2-(6,7-dihydro-5H-pyrrolo[1,2-c]imidazol-1-yl)-N-(thiazol-2-yl)acetamide]	8.70	–
